Experimental data taken from US8754057B2, “Inhibition of apoptosis-specific eIF-5A(eIF-5A1″) with antisense oligonucleotides and siRNA as anti-inflammatory therapeutics” (Senesco Technologies, Inc., priority 2003, dated 2014).
*1 amine or outer side, *2 acyl side, *3 side chain or, on linkers, in order; H or OH if unused. Where a SMILES comes first, the peptide text is derived from it. Bridges are numbered along the chain shown (N, C = ends). Roman numbers before positions name the chains, in order. [ ]: non-standard residue; d: D form. Actinocin(9to1) = Cc1c2oc3c(C)ccc(C(=O)[*:1])c3nc-2c(C(=O)[*:2])c(N)c1=O; NMeV = CN[C@H](C(=O)O)C(C)C; Sar = CNCC(=O)O

What was measured:
Assay type in all cases: cell-based, human
[1] = tested on: lamina cribrosa cell line #506; test: Hoescht staining apoptosis of siRNA-transfected lamina cribrosa cells treated with TNF-α and camptothecin; settings: LC #506, 72 h after siRNA transfection, 24 h 10 ng/ml TNF-α plus 50 μM camptothecin
Procedure: Lamina cribrosa cell line #506 cells were seeded at 7500 cells per well onto an 8-well culture slide. Three days later the LC cells were transfected with either GAPDH siRNA, apoptosis-specific eIF-5A siRNAs #1-4 (SEQ ID NO:30-33), or control siRNA #5 (SEQ ID NO:34). 72 hours after transfection, the transfected cells were treated with 10 ng/ml TNF-α plus 50 μM camptothecin. Twenty-four hours later the cells were stained with Hoescht 33258 and viewed by fluorescence microscopy using a UV filter. Cells with brightly stained condensed or fragmented nuclei were counted as apoptotic. This graph represents the average of n=4 independent experiments.
Following transfection, RKO and lamina cribrosa cells were incubated for 72 hours prior to collection of cellular extract for Western blot analysis. In order to determine the effectiveness of the siRNAs directed against apoptosis-specific eIF-5A to block apoptosis, lamina cribrosa cells were treated with 50 μM of camptothecin (Sigma) and 10 ng/ml of TNF-α (Leinco Technologies) to induce apoptosis either 48 or 72 hours after transfection. The cells were stained with Hoescht either 24 or 48 hours later in order to determine the percentage of cells undergoing apoptosis.
Small inhibitory RNAs (siRNAs) directed against human apoptosis-specific eIF-5A were used to specifically suppress expression of eIF5A in lamina cribrosa cells. Six siRNAs were generated by in vitro transcription using the Silencer™ siRNA Construction Kit (Ambion Inc.), Four siRNAs were generated against human apoptosis-specific eIF-5A (siRNAs #1 to #4). […] The siRNAs were generated according to the manufacturer's protocol. The eIF5A and control siRNA targets had the following sequences: siRNA #1 5′ […] 3′ (SEQ ID NO: 81); siRNA #2 5′ […] 3′ (SEQ ID NO: 82); siRNA #3 5′ […] 3′ (SEQ ID NO: 83); siRNA #4 5′ […] 3′ (SEQ ID NO: 84); siRNA #5′ […] 3′ (SEQ ID NO: 85). Lamina cribrosa cells were transfected with siRNA using LipofectAMINE 2000.
Lamina cribrosa cells were transfected when cell confluence was at 40 to 70% and were generally seeded onto 8-well culture slides at 7500 cells per well three days prior to transfection. Transfection medium sufficient for one well of an 8-well culture slide was prepared by diluting 25.5 proles of siRNA to a final volume of 21.2 μl in Opti-Mem (Sigma). 0.425 μl of Lipofectamine 2000 was diluted to a final volume of 21.2 μl in Opti-Mem and incubated for 7 to 10 minutes at room temperature. The diluted Lipofectamine 2000 mixture was then added to the diluted siRNA mixture and incubated together at room temperature for 20 to 30 minutes, The cells were washed once with serum-free media before adding 135 μl of serum-free media to the cells and overlaying 42.4 μl of transfection medium. […]

[2] = tested on: lamina cribrosa cell line #506; test: TUNEL labeling of siRNA-transfected LC cells treated with TNF-α and camptothecin; settings: LC #506, TNF-α and camptothecin 24 h
Procedure: Lamina cribrosa cell line #506 cells were seeded at 7500 cells per well onto an 8-well culture slide. Three days later the LC cells were transfected with either apoptosis-specific eIF-5A siRNA #1 (SEQ ID NO:30) or control siRNA #5 (SEQ ID NO:34). 72 hours after transfection, the transfected cells were treated with 10 ng/ml TNF-α plus 50 μM camptothecin. Twenty-four hours later the cells were stained with Hoescht 33258 and DNA fragmentation was evaluated in situ using the terminal deoxynucleotidyl transferase-mediated dUTP-digoxigenin nick end labeling (TUNEL) method. Panel A represents the slide observed by fluorescence microscopy using a fluorescein filter to visualize TUNEL-labeling of the fragmented DNA of apoptotic cells. Panel B represents the same slide observed by through a UV filter to visualize the Hoescht-stained nuclei. The results are representative of two independent experiments. All pictures were taken at 400 times magnification.
Transfected cells that had been treated with TNF-α and camptothecin for 24 hours were stained with Hoescht 33258 in order to determine the percentage of cells undergoing apoptosis. Briefly, cells were fixed with a 3:1 mixture of absolute methanol and glacial acetic acid and then incubated with Hoescht stain (0.5 μg/ml Hoescht 33258 in PBS). After a 10 minute incubation in the dark, the staining solution was discarded, the chambers separating the wells of the culture slide were removed, and the slide was washed 3 times for 1 minute with deionized water. After washing, a few drops of Mcllvaine's buffer (0.021 M citric acid, 0.058 M Na2HPO4.7H2O; pH 5.6) was added to the cells and overlaid with a coverslip. The stained cells were viewed under a fluorescent microscope using a UV filter. Cells with brightly stained or fragmented nuclei were scored as apoptotic. A minimum of 200 cells were counted per well. The DeadEnd™ Fluorometric TUNEL (Promega) was also used to detect the DNA fragmentation that is a characteristic feature of apoptotic cells. Following Hoescht staining, the culture slide was washed briefly with distilled water, and further washed by immersing the slide twice for 5 minutes in PBS (137 mM NaCl, 2.68 mM KCl, 1.47 mM KH2PO4, 8.1 mM Na2HPO4), blotting the slide on paper towel between washes. The cells were permeabilized by immersing them in 0.2% Triton X-100 in PBS for 5 minutes. The cells were then washed again by immersing the slide twice for 5 minutes in PBS and blotting the slide on paper towel between washes. 25 μl of equilibration buffer [200 mM potassium cacodylate (pH 6.6), 25 mM. Tris-HCl (pH 6.6), 0.2 mM dithiothreitol, 0.25 mg/ml bovine serum albumin, and 2.5 mM cobalt chloride] was added per well and incubated for 5 to 10 minutes. […] Any cells with brightly stained or fragmented nuclei were scored as apoptotic. […]

[3] = tested on: lamina cribrosa cell line #506; settings: 48 hours; Hoescht staining
Procedure: FIG. 83 is a graph showing percent apoptosis of lamina cribrosa cell line #506 in response to treatment with camptothecin and TNF-α. Lamina cribrosa cell line #506 cells were seeded at 40,000 cells per well onto an 8-well culture slide. Three days later the confluent LC cells were treated with either 10 ng/ml TNF-α, 50 μM camptothecin, or 10 ng/ml TNF-α plus 50 μM camptothecin. An equivalent volume of DMSO, a vehicle control for camptothecin, was added to the untreated control cells. The cells were stained with Hoescht 33258 48 hours after treatment and viewed by fluorescence microscopy using a UV filter. Cells with brightly stained condensed or fragmented nuclei were counted as apoptotic.
Apoptosis was induced in lamina cribrosa cells using a combination of 50 μM camptothecin (Sigma) and 10 ng/ml TNF-α (Leinco Technologies).
Since TNF-α is believed to play an important role during the glaucomatous process, the susceptibility of LC cells to the cytotoxic effects of TNF-α was examined. Confluent LC cells were exposed to either camptothecin, TNF-α, or a combination of camptothecin and TNF-α for 48 hours (FIG. 83).

[4] = tested on: RKO cells; test: Western blots of RKO cells treated with Actinomycin D; settings: 0.25 μg/ml Actinomycin D for 0, 3, 7, 24, and 48 hours
Procedure: FIG. 43 provides Western blots of protein extracted from RKO cells treated with 0.25 μg/ml Actinomycin D for 0, 3, 7, 24, and 48 hours. The top panel depicts a Western blot using anti-p53 as the primary antibody. The middle panel depicts a Western blot using anti-apoptosis-specific eIF-5A as the primary antibody.

[5] = tested on: apoptosis-specific eIF-5A; test: Western blot of HT-29 cells treated with IFN gamma; settings: at 8 hours
Procedure: FIG. 81 is a western blot of HT-29 cells treated with IFN gamma for 8 and 24 hours.
Priming the cells with interferon gamma prior to TNF treatment causes the cells to produce more IL-8 than either treatment alone. This may be due to the known upregulation of the TNF receptor 1 in response to interferon, so ‘priming’ the cells with interferon allows them to respond to TNF better since the cells have more receptors. siRNA against apoptosis-specific eIF-5A had no effect on IL-8 production in response to TNF alone (previous experiment) however, the siRNA blocked almost all IL-8 produced in response to interferon as well as a significant amount of the IL-8 produced as a result of the combined treatment of interferon and TNF. […] FIG. 81 is a western showing up-regulation (4 fold at 8 hours) of apoptosis-specific eIF-5A in response to interferon gamma in HT-29 cells.

Compound: siRNA #2: siRNA against human apoptosis-specific eIF-5A (SEQ ID NO:31); target 5′ AAGATCGTCGAGATGTCTACT 3′ (SEQ ID NO: 82) (AAGAUCGUCGAGAUGUCUACUUC; unmodified RNA; listed as Homo sapiens)
- reduce apoptosis of LC cells [1]: 35%

Compound: siRNA #4: siRNA against human apoptosis-specific eIF-5A (SEQ ID NO:33); target 5′ AAGCTGGACTCCTCCTACACA 3′ (SEQ ID NO: 84) (AAGCTGGACTCCTCCTACACAAT; listed as DNA, chemistry not fully specified; listed as Homo sapiens)
- protection from apoptosis relative to the control siRNA ([2]; TUNEL): greater than 60%
- reduce apoptosis of LC cells [1]: 69%

Compound: TNF-α
- cytotoxic to LC cells [3]: not cytotoxic

Compound: Cc1c2oc3c(C)ccc(C(=O)N[C@@H]4C(=O)N[C@H](C(C)C)C(=O)N5CCC[C@H]5C(=O)N(C)CC(=O)N(C)[C@@H](C(C)C)C(=O)O[C@@H]4C)c3nc-2c(C(=O)N[C@@H]2C(=O)N[C@H](C(C)C)C(=O)N3CCC[C@H]3C(=O)N(C)CC(=O)N(C)[C@@H](C(C)C)C(=O)O[C@@H]2C)c(N)c1=O [Actinomycin D] (I: T[dV]P[Sar][NMeV] / II: T[dV]P[Sar][NMeV]; ester I:1-I:C, II:1-II:C; linker I:N-II:N via Actinocin(9to1))
- apoptosis-specific eIF-5A protein [4]: upregulated
- p53 protein [4]: upregulated

Compound: interferon gamma: interferon gamma (Roche Diagnostics)
- up-regulation of apoptosis-specific eIF-5A [5]: 4 fold

Compound: siRNA #3: siRNA against human apoptosis-specific eIF-5A (SEQ ID NO:32); target 5′ AAGGTCCATCTGGTTGGTATT 3′ (SEQ ID NO: 83) (AAGGUCCAUCUGGUUGGUAUUGA; unmodified RNA; listed as Homo sapiens)
- reduce apoptosis of LC cells [1]: 50%

Compound: siRNA #5: control siRNA (SEQ ID NO:34) with the reverse sequence of siRNA #1; does not target eIF5A (AAAGTCGACCTTCAGTAAGGATT; listed as DNA, chemistry not fully specified; listed as Homo sapiens)
- LC cells positive for TUNEL staining ([2]; 3 days after transfection): 46%
